Reference: patent US20220016080A1, “COMPOUNDS THAT SELECTIVELY AND EFFECTIVELY INHIBIT HAKAI-MEDIATED UBIQUITINATION, AS ANTI-CANCER DRUGS” (FUNDACIÓN PROFESOR NOVOA SANTOS, priority 2018, published 2022)

What was measured:
Format in all cases: cell-based
[1] = biological target: T1, E3 ubiquitin-ligase Hakai (Mus musculus, UniProt Q9JIY2); assay: Hakai-dependent ubiquitination assay in 293T cells transfected with Flag-Hakai, v-Src and HA-ubiquitin; settings: 293T cells transfected with Src, treated 36 h, DMSO as control
T1 construct: expressed in transfected cells; host or cells: HEK293T (293) cells, co-transfected with v-Src and HA-ubiquitin, and in A3 also with myc-E-cadherin
T1 sequence (Q9JIY2 1-491): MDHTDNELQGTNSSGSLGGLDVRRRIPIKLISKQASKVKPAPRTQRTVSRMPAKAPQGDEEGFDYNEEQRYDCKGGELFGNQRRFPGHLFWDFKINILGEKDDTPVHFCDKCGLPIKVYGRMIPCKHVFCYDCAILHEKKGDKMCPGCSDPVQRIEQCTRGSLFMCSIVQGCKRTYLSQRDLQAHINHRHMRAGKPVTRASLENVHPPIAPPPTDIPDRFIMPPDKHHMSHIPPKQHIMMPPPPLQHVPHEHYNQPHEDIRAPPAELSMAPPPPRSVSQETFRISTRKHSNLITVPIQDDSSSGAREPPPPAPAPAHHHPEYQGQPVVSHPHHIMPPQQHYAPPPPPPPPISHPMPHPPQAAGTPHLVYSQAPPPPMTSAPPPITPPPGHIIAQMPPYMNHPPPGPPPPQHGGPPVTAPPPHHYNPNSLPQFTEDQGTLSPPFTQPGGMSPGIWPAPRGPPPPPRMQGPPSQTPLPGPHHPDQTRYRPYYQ
Experimental: For ubiquitination assays, 750.000 HEK293T cells were seeded in 6-well cell culture plates and after 24 h were transfected with 0.25 μg Src, 0.75 μg Flag-Hakai, and 0.5 μg HA-ubiquitin with Lipofectamin 2000 (Invitrogen, UK). Six hours after transfection cells were treated with indicated concentrations of Hakin-1, Hakin-5 or the rest of the analogues tested for 36 h. Whole cell extracts were obtained in lysis buffer (20 mM Tris-HCl pH 7.5, 150 mM NaCl and 1% Triton X-100) containing 10 μg/ml leupeptin, 10 μg/ml aprotinin and 1 mM phenylmethanesulphonyl fluoride (PMSF), supplemented with 10 mM N-ethylmaleimide. Cells were harvested and subjected to western blotting using anti-HA antibody to detect ubiquitination.

[2] = tested on: HT-29 colon tumour cell line; assay: MTT cell viability assay, HT29; settings: 72 h, analogues at 50-500 μM
Experimental: (§1) For cytotoxicity assays, 1×10^4 cells were seeded per well into a 96-well plate. After 24 h cells were treated with the indicated inhibitors for 72 h and a MTT colorimetric cell viability assay was performed following manufacturer's instructions (Sigma Aldrich, St Louis, Mo.). Absorbance was measured at 570 and 630 nm using a Multiskan Plus Reader (Nanoquant Infinite M200 Tecan Trading AG, Switzerland). Dose-response curves were designed with Graph Pad Prism Software and the half-maximal inhibitory concentration (IC50) values were calculated. Represented data are the mean±SEM of at least three independent experiments with six replicates per condition.

[3] = tested on: normal epithelial MDCK cell line; assay: MTT cell viability assay, MDCK; settings: normal epithelial MDCK compared to Hakai-MDCK; 72 h
Experimental: as §1

[4] = tested on: Hakai-MDCK cell lines (clone 4 and clone 11); assay: MTT cell viability assay, Hakai-MDCK; settings: both clones of Hakai-MDCK compared to MDCK; 72 h
Experimental: as §1

[5] = tested on: Hakai-transformed MDCK cells; assay: Phase-contrast cell phenotype, Hakai-MDCK
Experimental: MDCK, HEK293T, HepG2, MCF7 and ACHN cells were cultured in Dulbecco's Modified Eagles Medium (DMEM). MDCK stably expressing Hakai cells (Hakai-MDCK) were previously reported and were growth in DMEM with G418 (800 μg/ml). […] LoVo and PC-3 cells were cultured in F-12K Medium (Kaighn's Modification of Ham's F-12 Medium) and HT-29 cells in McCoy's 5a Medium Modified. 5637 cells were cultured in RPMI medium. All culture media were supplemented with 1% penicillin/streptomycin and 10% of heat-inactivated fetal bovine serum (FBS) at 37° C. in a humidified incubator with 5% CO2. Cells were monthly tested for mycoplasma contamination and used only for 1-3 months after defrosted. LoVo and HT29 cells were authenticated with the StemElite ID system (Promega). For phase-contrast images, culture cells were photographed with a Nikon Eclipse-TI microscope.

HT-29 cells [6] = assay: Western blotting of EMT markers, HT-29; settings: 48 h
Experimental: (§2) For western blot analysis, cells were treated with the indicated inhibitors for 48 h and the whole cell extracts were obtained as described previously. Twenty micrograms of lysates were resolved on a 10% polyacrilamide SDS-PAGE followed by western blot analysis performed as previously described. For immunofluorescence assays cells were grown for 24 h on glass coverslips and treated with the indicated inhibitors for 48 h. Cells were fixed with 4% PFA for 15 min, permeabilized with 0.5% […] and incubated with E-cadherin antibody for 2 h. Coverslips were incubated with fluorescein-tagged secondary antibody (Dakopatts, Sweden) for […]. Finally coverslips were mounted with ProLong Gold antifade reagent (LifeTech, UK) and images were taken in epifluorescence microscope (Olympus) using 40× objective.

HT-29 cells [7] = assay: Immunofluorescence of E-cadherin, HT-29; settings: 48 h
Experimental: as §2

HT29 cells = assay: BrdU proliferation assay, HT29; settings: 48 h
Experimental: (§3) For BrdU assays, 1×10^4 of indicated cells were plated per well into a 96-well plate. After 24 h, cells were treated with the indicated inhibitors for 48 h. Three independent experiments were plated with six replicates per each condition. Cells were treated with […] BrdU for 2 h. BrdU incorporation into newly synthesized DNA was measured using a cell proliferation colorimetric immunoassay kit according to the manufacturer's instructions (Roche, Switzerland). Results are expressed as mean±S.D. Results are represented as percentage of positive cells (mean±S.D) of three independent experiments.

LoVo cells = assay: BrdU proliferation assay, LoVo; settings: 48 h
Experimental: as §3

Q: With `O=C(O)c1ccc(-n2nnnc2SCC(=O)c2ccc(Cl)s2)cc1` [Hakin A-23] as the molecule, how does the “ubiquitination mediated by Hakai (western blotting, anti-HA)” value [1] read?
A: inhibitory effect of Hakai activity

Q: And the “cytotoxicity effect (cell viability, MTT)” value [2]?
A: important inhibitory response

Q: `CC(/C=C/C(=O)O)=C\CC(O)/C(C)=C/CCC(C)C(C)O` (stereo not shown) [Hakin-5, (2E,4E,8E)-7,13-Dihydroxy-4,8,12-trimethyl-2,4,8-tetradecatrienoic acid, reference compound] was tested. Which “ubiquitination mediated by Hakai (western blotting, anti-HA)” value [1] did it give?
A: no effect was detected

Q: What about the “sensitivity to treatment (cell viability, MTT)” value [3] of the same molecule?
A: more resistant

Q: What about the “sensitivity to treatment (cell viability, MTT)” value [4] of the same molecule?
A: more sensitive

Q: What about the “mesenchymal phenotype (phase contrast)” value [5] of the same molecule?
A: induction of an epithelial phenotype

Q: And the “E-cadherin levels (western blotting)” value (HT-29 cells [6])?
A: no effect

Q: What about the “E-cadherin levels at cell-cell contacts (immunofluorescence)” value (HT-29 cells [7]) of the same molecule?
A: no effect

Q: What about the “cell proliferation (BrdU)” value (HT29 cells) of the same molecule?
A: no effect was seen

Q: What about the “cell proliferation (BrdU)” value (LoVo cells) of the same molecule?
A: no effect was seen
